Blank lines part the entries; values can stand above or below the molecule they belong to.
How the values were obtained:
[1] = molecular target: T1, HbSUT5 (Hevea brasiliensis, UniProt A0T058); test: competition with […]-sucrose uptake in yeast SEY6210; format: cell-based
T1 construct: gene SUT5; ORF primers give start MAIPQ
T1 sequence (A0T058 1-498): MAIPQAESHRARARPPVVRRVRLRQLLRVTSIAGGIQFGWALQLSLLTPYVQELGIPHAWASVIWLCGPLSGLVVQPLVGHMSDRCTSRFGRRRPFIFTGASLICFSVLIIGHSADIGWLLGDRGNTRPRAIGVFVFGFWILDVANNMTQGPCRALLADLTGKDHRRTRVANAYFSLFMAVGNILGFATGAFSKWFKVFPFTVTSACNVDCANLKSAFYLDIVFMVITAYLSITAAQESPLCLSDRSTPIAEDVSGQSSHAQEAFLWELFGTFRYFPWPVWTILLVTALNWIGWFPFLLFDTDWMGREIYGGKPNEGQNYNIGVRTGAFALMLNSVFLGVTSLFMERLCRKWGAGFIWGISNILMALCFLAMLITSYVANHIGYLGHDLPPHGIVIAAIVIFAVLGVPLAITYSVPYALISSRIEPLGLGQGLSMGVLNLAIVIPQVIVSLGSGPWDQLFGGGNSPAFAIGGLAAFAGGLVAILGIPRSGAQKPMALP

[2] = substrate: OC[C@H]1O[C@@](CO)(O[C@H]2O[C@H](CO)[C@@H](O)[C@H](O)[C@H]2O)[C@@H](O)[C@@H]1O; test: cells, lysate or membranes; format: cell-based, Hevea brasiliensis; details: pH 5.5, 0.5-8 mM sucrose, labelled compound, H+ symport, whole yeast cells

activity at 10000 µM [1]: 44 ± 3.4%
Molecule: OC[C@H]1O[C@H](O[C@H]2[C@H](O)[C@@H](O)C(O)O[C@@H]2CO)[C@H](O)[C@@H](O)[C@@H]1O (some centres unmarked) [Maltose]

B1: HbSUT5 (Hevea brasiliensis) (protein)
chain: T1 sequence (A0T058 1-498)
notes: ORF primers give start MAIPQ
Km [2]: 2030 µM

Reference: publication PMC6935173, “Characterization of a vacuolar sucrose transporter, HbSUT5, from Hevea brasiliensis: involvement in latex production through regulation of intracellular sucrose transport in the bark and laticifers” (BMC Plant Biology, 2019)
